Measurements reported in patent US6906170B1 (Yeda Research and Development Co. Ltd., priority 1998, dated 2005).
No end group written: not given here.

Assays:
[1] = tested on: human T cells; experiment: Induction of T cell adhesion to ECM, FN, LN and CO-IV; format: cell-based; settings: T cells activated only with PMA; not shown
[2] = tested on: HT-29 cells; experiment: Spontaneous IL-8 secretion from intestinal epithelial cells (ELISA); format: cell-based, human; set-up: IL-8 secretion Average O.D.: scale not given here; settings: peptide 1 nM, 24 h at 37° C.; for IL-8 secretion Average O.D.: ELISA O.D. at 405 nm, medium alone 488 ± 8.5, background 71 ± 1.4; for IL-8 secretion % inhibition: spontaneous secretion
Protocol: Human colonic epithelial cell lines HT-29 (ATCC HTB38) and Caco-2 (ATCC […]) were obtained from the American Type Culture Collection (ATTC, Rockville, Md.). Cells were maintained in culture medium (DMEM supplemented with 10% cosmic calf serum (CSS), 2 mM glutamine, 100 U/ml penicillin, and 0.1 mg/ml streptomycin), at 37° C. and atmosphere of 5%, CO2. Cell viability was assessed using the standard MTT method.
Spontaneous or cytokine-induced secretion of IL-8 or IL-1β from intestinal epithelial cell. Test cells (HT-29 or Caco-2) were grown as confluent monolayers in 24-well tissue culture plates. […] When TNF-α was used, the peptides were added to the cells 1 hour prior to the addition of TNF-α. Following culture, the supernatants were harvested and analyzed for IL-8 or IL-1β secretion by ELISA using commercially available kits for IL-8 (Pharmingen) and IL-1β (Genzyme), according to the manufacturers' protocols.
The results in Table 1 show the O.D. readings of the ELISA assay (at 405 nm) as well as the percentage of inhibition of IL-8 secretion.

[3] = tested on: human T cells; experiment: IL-2-induced T cell adhesion to LN, CO-IV and FN after peptide pre-treatment; format: cell-based; settings: pre-exposed to peptide 10 pg/ml, then IL-2 10 U/ml
Protocol: The T cells were then seeded onto microtiter wells that were pre-coated (1 μg/well) with the various ECM glycoproteins. T cell adhesion was measured 30 min later.
(§1) T cell adhesion assays. Human T cells were purified from the peripheral blood of healthy donors, and T cell adhesion to immobilized protein substrates was examined as follows: Human leukocytes were isolated on a Ficoll gradient, washed, and incubated (2 h, 37° C., 7.5% CO2, humidified atmosphere) on petri dishes. The non-adherent cells were then collected and incubated (1 h, 37° C., 7.5% CO2, humidified atmosphere) on nylon wool columns (Novamed Ltd., Jerusalem, Israel). Unbound cells were eluted from the columns by extensive washings. The resulting cell population was always >92% T cells. […] After 4-6 h at 37° C., the wells were washed and ^51[Cr]-labeled T cells were added to the wells, 10^5 cells/100 μl of adhesion medium (RPMI-1640 supplemented with 0.1% BSA, 1% sodium pyruvate, 1% HEPES buffer). The microtiter plates containing the cells were incubated (30 min, 37° C.) in a humidified, 7.5% CO2 atmosphere, and then washed. The adherent cells were lysed, and the resulting supernatants were removed and analyzed in a γ-counter. For each experimental group, the results were expressed as the mean percentage ±SD of bound T cells from quadruplicate wells.
Ile-Val-Leu, Arg-Met-Leu-Thr (SEQ ID NO:2) and […](SEQ ID NO:1) inhibit T cell adhesion to LN, CO-IV and FN. The next experiment was designed and performed to verify that the three IL-2-derived peptides indeed affect T cell interactions with ECM glycoproteins other than FN. […] The treated cells were then added to microtiter wells coated with CO-IV, LN, and FN.

[4] = tested on: human T cells; experiment: Secretion of TNF-α and IFN-γ from proliferating T cells; format: cell-based; settings: peptide 1 to 100 pg/ml; not shown
[5] = tested on: human T cells; experiment: T cell chemotaxis through FN-coated polycarbonate membranes; format: cell-based; settings: peptide 1 pg/ml, FN-coated membrane
Protocol: T cell migration towards the chemotactic sources was assessed after 2 hr. One experiment representative of four.
Chemotaxis assays. T cell chemotaxis was performed and analyzed as previously described (Ben-Baruch et al., 1997). Briefly, the migration of human T cells (0.5×10^6 cells in adhesion medium/well) was examined in a 48-well chemotaxis micro-chamber (Neuro-Probe Inc., Cabin John, M D). The two compartments of the micro-chambers were separated by a FN-coated polycarbonate filter (5 μm pore size; Osmonics Protein Products, Livemore, Calif.). […] After incubation (120 min, 37° C., in a humidified, 7.5% CO2 atmosphere); the filters were removed, fixed, and stained with a Diff-Quik staining kit Dade, Düdingen, Switzerland). The number of migrating T cells in five high-power fields (under 500× magnification; WILD Microscope, Heerbrugg, Switzerland) was evaluated. For each group, the results are expressed as the mean number of cells in one high-power field.
Immune cell migration is the outcome of a subtle biological equilibrium existing between adhesion and detachment events. Lymphocyte adhesion to the subendothelial ECM and subsequent migration are two active processes that can overlap, but are not mutually dependent events. Adhesion and migration may depend on the ability of the T cells to continuously integrate different pro- and anti-adhesive signals via their versatile receptors for ECM, chemokines, cytokines, and possibly, also antigenic moieties.

[6] = tested on: human T cells; experiment: PHA- or IL-2-mediated T cell proliferation; format: cell-based; settings: peptide 1 to 100 pg/ml
Protocol: The in vitro bioassays (a) to (e) are well-known in the art. Thus, for example, assays (a), (b) and (e) may be carried out as described in the section Materials and Methods hereinafter. […] The IL-2-derived peptides or their derivatives are added to the culture wells (different amounts, 10 microliters) for the entire period of the assay. [^3H]-Thymidine is added to the microtiter 96 U-form well plates 18 h before harvesting the cultures on day 3 onto glass fiber filters and counted by liquid scintillation counter. Mean CPM and SD from quadriplicate culture are then presented.

[7] = tested on: human T cells; experiment: IL-2-induced T cell adhesion to fibronectin (FN); format: cell-based; settings: for inhibition of adhesion of IL-2-activated T cells to FN: 30 min at 37° C., dose range
Protocol: as §1
The effect of synthetic peptides, with putative amino acid compositions corresponding to fractions 2 and 8, on IL-2-induced T cell adhesion to FN. […] These three peptides were synthesized, and their effects on IL-2-induced T cell adhesion to FN were studied. […] The inhibitory dose-response curves of Ile-Val-Leu and […](SEQ ID NO:1) are similar to those of the HPLC fractions 2 and 8, respectively, from which they were derived. […]

Compound	IL-8 secretion Average O.D. [2]	IL-8 secretion % inhibition [2]	other results
CCCCCCCCCCCCCC(=O)O[C@@H]1[C@@H](C)[C@@]2(O)[C@@H](C=C(CO)C[C@]3(O)C(=O)C(C)=C[C@@H]23)[C@@H]2C(C)(C)[C@]12OC(C)=O [PMA]	–	–	T cells adhered to immobilized ECM and ECM glycoproteins [1]: 45±4.4%
AFLNRWIT [pep22]	158 ± 4.2	79%	–
ATIVEFLNRWIT [pep17]	150 ± 6.4	81%	–
Ala-Met-Leu-Thr (AMLT) [pep36]	201 ± 17.7	69%	–
Ala-Val-Leu [pep7]	170 ± 8.5	76%	–
Arg-Ala-Leu-Thr (RALT) [pep37]	222 ± 24.0	64%	–
Arg-Met-Ala-Thr (RMAT) [pep38]	157 ± 1.4	79%	–
Arg-Met-Leu-Ala (RMLA) [pep39]	160 ± 21.9	79%	–
Arg-Met-Leu-Thr (RMLT; not fully specified (C-terminus); printed as Arg-Met-Leu-Thr) [pep3]	44 ± 0.7	107%	inhibition of T cell adhesion to CO-IV, LN and FN [3]: inhibit T cell adhesion to the three major cell-adhesive glycoproteins of the ECM; inhibition of secretion of TNF-α and IFN-γ from proliferating T cells [4]: nor did these peptides inhibit the secretion of TNF-α and IFN-γ; inhibition of T cell migration toward IL-2 ([5]; IL-2 10 U/ml in lower compartment, p<0.01): ~90%; inhibition of T cell chemotaxis toward MIP-1β ([5]; MIP-1β in lower compartment): 60%; interference with PHA- or IL-2-mediated proliferative responses [6]: none of them, at 1 to 100 pg/ml, interfered with either PHA- or IL-2-mediated proliferative responses; concentration giving maximum inhibition of IL-2-induced T cell adhesion to FN ([7]; IL-2 10 U/ml): about 0.1 pg/ml; concentration giving maximum inhibition of IL-2-induced T cell adhesion to FN (molar) ([7]; IL-2 10 U/ml): ~0.2 pM; inhibition of adhesion of IL-2-activated T cells to FN ([7]; IL-2 10 U/ml): inhibited, in a dose-dependent manner; anti-adhesive effect after removal of peptide prior to IL-2 activation ([7]; T cells pre-treated 1 pg/ml, washed, then IL-2 and FN-coated wells): most of the anti-adhesive effects of the three peptides persevered; relative potency as inhibitor of IL-2-induced T cell adhesion to FN ([7]; among the three IL-2 peptides): most potent inhibitor
Arg-Met-Leu-Thr-NH2 (RMLT-NH2) [pep42]	226 ± 28.3	63%	–
Arg-Trp-Ile-Thr [pep20]	191 ± 4.9	71%	–
Arg-Val-Leu-Thr (RVLT) [pep41]	132 ± 17.0	85%	–
Asn-Val-Ile-Val-Leu (NVIVL) [pep6]	100 ± 14.8	93%	–
EALNRWIT [pep24]	187 ± 16.3	72%	–
EFANRWIT [pep26]	156 ± 27.6	80%	–
EFLARWIT [pep27]	309 ± 18.4	43%	–
EFLNAWIT [pep28]	120 ± 8.5	88%	–
EFLNEWIT [pep29]	139 ± 19.8	84%	–
EFLNRAIT [pep30]	123 ± 9.2	88%	–
EFLNRWAT [pep31]	112 ± 18.4	90%	–

Compound	IL-8 secretion Average O.D. [2]	IL-8 secretion % inhibition [2]	other results
EFLNRWIA [pep32]	80 ± 24.0	98%	–
EFLNRWITFC [pep16]	126 ± 7.1	87%	–
EFLNRWITFCQS [pep18]	162 ± 12.0	78%	–
EVLNRWIT [pep25]	172 ± 2.8	76%	–
Glu-Phe-Leu-Asn [pep21]	195 ± 14.1	70%	–
Glu-Phe-Leu-Asn-Arg-Trp-Ile-Thr-NH2 (EFLNRWIT-NH2) [pep33]	73 ± 5.7	100%	–
Glu-Val-Leu [pep10]	125 ± 19.1	87%	–
IVEFLNRWIT [pep15]	33 ± 0.7	109%	–
IVLELKG [pep5]	35 ± 0.7	109%	–
Ile-Ala-Leu [pep8]	35 ± 4.9	109%	–
Ile-Val-Ala [pep9]	100 ± 9.9	93%	–
KFLNRWIT [pep23]	36 ± 14.1	108%	–
LNRWIT [pep19]	152 ± 30.4	81%	–
Leu-Val-Ile [reference compound]	–	–	inhibition of adhesion of IL-2-activated T cells to FN ([7]; IL-2 10 U/ml): none of these peptides, tested in a broad range of dosages, interfere with T cell adhesion
Lys-Met-Leu-Thr (KMLT) [pep40]	179 ± 17.7	74%	–
NINVIVL [pep4]	34 ± 3.5	109%	–
PKLTRMLT [pep43]	57 ± 12.7	103%	–
RMLTFKFY [pep44]	307 ± 29.7	43%	–
TIWRNLFE [reference compound]	–	–	inhibition of adhesion of IL-2-activated T cells to FN ([7]; IL-2 10 U/ml): none of these peptides, tested in a broad range of dosages, interfere with T cell adhesion
Thr-Leu-Met-Arg (TLMR) [reference compound]	–	–	inhibition of adhesion of IL-2-activated T cells to FN ([7]; IL-2 10 U/ml): none of these peptides, tested in a broad range of dosages, interfere with T cell adhesion
